Key:
[1] = system: Greb1 expression; test: Greb1 qPCR in primary myotubes; type: cell-based, mouse; details: steroid-free conditions, 24 h
[2] = system: ER-regulated genes PGR, GREB1, TFF1/pS2; test: qPCR of ER target genes in MCF-7 cells; type: cell-based; details: MCF-7 in normal FBS-containing media, ~1 pM E2
[3] = system: primary female mouse myotubes; test: Primary myotube size by high-content imaging; type: cell-based; details: 50 pM, 5 d
[4] = system: MCF-7 WT cells; test: Cell proliferation assay, MCF-7 WT; details: MCF-7 with ER-WT, charcoal-stripped FBS, 5 d

Compound: C[C@]12CC[C@@H]3c4ccc(O)cc4CC[C@H]3[C@@H]1CC[C@@H]2O [Compound E2, 17β-estradiol]
- Greb1 expression dose response (in words) [1]: biphasic with an inflection point below the ligand Kd
- Gene expression profile in full media (in words) [2]: less induction of gene expression
- Myotube diameter / tube area (in words) [3]: maintained primary myotube diameter
- Effect on proliferation (activity profile, in words) [4]: induced cell growth at doses 2 logs below the Kd

Source: publication PMC11181081 (Proceedings of the National Academy of Sciences of the …, 2024)
